From patent publication US20100068150A1, “Selective Caspase Inhibitors” (The Board of Trustees of the Leland Stanford Junior …, priority 2006, published 2010)

Experiments:
Type in all cases: biochemical
Caspase-3 = biological target: T1, Caspase-3 (Homo sapiens, UniProt P42574); test: Kinetic compound screening, progress curve method, caspase-3; settings: for Ki(app) Caspase-3: Table III, Ki(app) = Kass or Kobs/I, 5 nM active caspase-3; for Caspase-3 Ki(app): Table IV
T1 sequence (P42574 29-175 limits assumed): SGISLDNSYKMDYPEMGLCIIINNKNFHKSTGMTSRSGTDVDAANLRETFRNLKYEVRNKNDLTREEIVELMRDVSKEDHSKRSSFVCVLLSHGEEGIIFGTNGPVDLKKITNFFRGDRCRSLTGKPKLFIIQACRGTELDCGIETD
T1 sequence (P42574 176-277 limits assumed): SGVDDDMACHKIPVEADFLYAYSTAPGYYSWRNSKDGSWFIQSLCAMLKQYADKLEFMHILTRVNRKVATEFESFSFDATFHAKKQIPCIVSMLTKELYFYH
In short: (§1)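 Progress-curve method under pseudo-first-order kinetics, giving Ki(app) (kobs/I, M^−1s^−1), in caspase reaction buffer. Active enzyme at 5 nM (caspase-3, -7), 10 nM (caspase-8) or 50 nM (caspase-9), preactivated at 37 °C for 5, 10 or 40 min respectively. Some caspase-9 compounds also run with 1 M sodium citrate replacing sucrose.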

Caspase-8 = Caspase-8 (Homo sapiens, UniProt Q14790); test: Kinetic compound screening, progress curve method, caspase-8; settings: for Ki(app) Caspase-8: Table III, Ki(app) = Kass or Kobs/I, 10 nM active caspase-8; for Caspase-8 Ki (app): Table IV, NI = no inhibition at concentrations tested
Chain of Caspase-8 (Q14790 217-479): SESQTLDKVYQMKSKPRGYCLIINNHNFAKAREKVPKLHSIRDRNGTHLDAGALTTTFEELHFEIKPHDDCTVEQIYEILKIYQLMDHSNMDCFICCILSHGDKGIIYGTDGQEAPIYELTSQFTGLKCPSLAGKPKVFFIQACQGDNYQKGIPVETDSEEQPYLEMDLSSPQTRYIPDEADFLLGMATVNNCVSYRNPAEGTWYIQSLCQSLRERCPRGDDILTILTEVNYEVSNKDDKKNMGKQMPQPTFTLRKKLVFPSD
In short: as §1

Caspase-7 = biological target: T2, Caspase-7 (Homo sapiens, UniProt P55210); test: Kinetic compound screening, progress curve method, caspase-7; settings: for Ki(app) Caspase-7: Table III, Ki(app) = Kass or Kobs/I, 5 nM active caspase-7; for Caspase-7 Ki (app): Table IV
T2 sequence (P55210 1-303): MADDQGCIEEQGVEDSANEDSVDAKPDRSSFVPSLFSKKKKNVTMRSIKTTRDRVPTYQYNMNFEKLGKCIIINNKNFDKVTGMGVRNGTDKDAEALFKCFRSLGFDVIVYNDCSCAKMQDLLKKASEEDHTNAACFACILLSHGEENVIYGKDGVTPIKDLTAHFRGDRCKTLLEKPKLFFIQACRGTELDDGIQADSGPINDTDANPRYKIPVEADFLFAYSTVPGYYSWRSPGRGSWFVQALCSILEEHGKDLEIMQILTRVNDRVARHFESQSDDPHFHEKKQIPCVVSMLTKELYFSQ
In short: as §1

Compound | Ki(app) Caspase-3 (Caspase-3) | Caspase-3 Ki(app) (Caspase-3) | inhibition of caspase-8, in words (Caspase-8) | Ki(app) Caspase-8 (Caspase-8) | Caspase-8 Ki (app) (Caspase-8) | Ki(app) Caspase-7 (Caspase-7) | Caspase-7 Ki (app) (Caspase-7)
Cc1cccc(C)c1C(=O)OCC(=O)[C@H](CC(=O)O)NC(=O)[C@@H](NC(=O)[C@H](CCC(=O)O)NC(=O)[C@H](CC(=O)O)NC(=O)Cc1ccc(O)c([N+](=O)[O-])c1)C(C)C [AB09, Np-D-E- V-D-DMBA] | 10,922,261 M^−1s^−1 | 10,922,261 M-1s-1 | strong activity towards caspase-8 | 1,077,839 M^−1s^−1 | 1,077,839 M-1s-1 | 1,529,040 M^−1s^−1 | 1,529,040 M-1s-1
Cc1cccc(C)c1C(=O)OCC(=O)[C@H](CC(=O)O)NC(=O)[C@@H](NC(=O)[C@H](Cc1ccncc1)NC(=O)[C@H](CC(=O)O)NC(=O)Cc1ccc(O)c([N+](=O)[O-])c1)C(C)C [AB06, Np-D-3-V-D-DMBA] | 7,456,511 M^−1s^−1 | 7,456,511 M-1s-1 | – | 32,909 M^−1s^−1 | 32,909 M-1s-1 | 968,070 M^−1s^−1 | 968,070 M-1s-1
Bio-EVD-AOMK [KMB01, reference compound] | 577,913 M^−1s^−1 | 577,913 M-1s-1 | – | 164,052 M^−1s^−1 | 164,052 M-1s-1 | 288,213 M^−1s^−1 | 288,213 M-1s-1
